The numbers were not newly measured in patent EP0374725A2, “Transdermal therapeutic system having norpseudoephedrine as the active compound” (LTS Lohmann Therapie-Systeme GmbH & Co. KG, priority 1988, dated 1990), which cites them from elsewhere.

The conditions of the data set: background statement, amphetamines as medium-strong bases.

Turning to `C[C@H](N)[C@@H](O)c1ccccc1` [D-Norpseudoephedrin], the pka-Wert is on record as 8,9.
